Assays:
[1] = system: Caco-2; experiment: cells; conditions: Homo sapiens
[2] = system: LoVo; experiment: cells; conditions: Homo sapiens
[3] = target: T1, Dual specificity mitogen-activated protein kinase kinase 1 (Homo sapiens, UniProt Q02750)
[4] = target: Serine/threonine-protein kinase AKT (Homo sapiens, UniProt P31751+Q9Y243+P31749); experiment: Inhibition of Akt phosphorylation in LoVo cells; assay type: functional, cell-based
[5] = target: T1, Dual specificity mitogen-activated protein kinase kinase 1; experiment: Inhibition of MEK1 phosphorylation in LoVo cells; assay type: functional, cell-based
[6] = system: LoVo; experiment: Inhibition of tyrosine phosphorylation in LoVo cells; assay type: functional, cell-based; conditions: Homo sapiens
[7] = target: Epidermal growth factor receptor (Homo sapiens, UniProt P00533)
Chain of Epidermal growth factor receptor (P00533 whole entry): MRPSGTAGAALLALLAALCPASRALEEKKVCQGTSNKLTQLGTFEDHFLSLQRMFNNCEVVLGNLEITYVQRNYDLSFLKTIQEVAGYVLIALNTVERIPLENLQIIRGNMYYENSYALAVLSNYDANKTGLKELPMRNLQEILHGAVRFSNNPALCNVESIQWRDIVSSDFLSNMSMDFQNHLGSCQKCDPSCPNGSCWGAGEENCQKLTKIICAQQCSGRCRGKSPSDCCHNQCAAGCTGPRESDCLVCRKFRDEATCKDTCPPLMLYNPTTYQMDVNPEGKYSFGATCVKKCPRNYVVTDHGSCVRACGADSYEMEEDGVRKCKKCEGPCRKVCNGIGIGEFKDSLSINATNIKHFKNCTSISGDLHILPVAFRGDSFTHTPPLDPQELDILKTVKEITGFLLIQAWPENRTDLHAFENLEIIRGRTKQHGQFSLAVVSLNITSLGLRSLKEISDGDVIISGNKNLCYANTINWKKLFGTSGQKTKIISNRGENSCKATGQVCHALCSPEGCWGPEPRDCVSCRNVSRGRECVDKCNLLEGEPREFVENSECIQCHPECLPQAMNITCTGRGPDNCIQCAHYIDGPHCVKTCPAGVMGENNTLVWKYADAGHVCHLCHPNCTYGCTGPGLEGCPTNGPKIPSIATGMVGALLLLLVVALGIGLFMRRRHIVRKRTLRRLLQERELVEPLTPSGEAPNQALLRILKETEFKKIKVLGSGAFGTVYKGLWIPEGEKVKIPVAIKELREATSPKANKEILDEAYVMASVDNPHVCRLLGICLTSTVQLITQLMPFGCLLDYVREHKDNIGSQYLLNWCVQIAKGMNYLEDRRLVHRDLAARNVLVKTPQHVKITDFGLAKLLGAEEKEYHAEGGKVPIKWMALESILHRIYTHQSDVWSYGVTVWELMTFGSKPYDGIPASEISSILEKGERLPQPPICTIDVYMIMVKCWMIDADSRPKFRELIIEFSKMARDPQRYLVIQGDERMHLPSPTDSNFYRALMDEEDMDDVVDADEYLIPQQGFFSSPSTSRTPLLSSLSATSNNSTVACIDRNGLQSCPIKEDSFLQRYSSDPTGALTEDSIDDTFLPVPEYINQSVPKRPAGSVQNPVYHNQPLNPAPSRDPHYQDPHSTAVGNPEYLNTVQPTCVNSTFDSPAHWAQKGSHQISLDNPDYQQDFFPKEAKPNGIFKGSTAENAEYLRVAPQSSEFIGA

T1 sequence (Q02750 whole entry): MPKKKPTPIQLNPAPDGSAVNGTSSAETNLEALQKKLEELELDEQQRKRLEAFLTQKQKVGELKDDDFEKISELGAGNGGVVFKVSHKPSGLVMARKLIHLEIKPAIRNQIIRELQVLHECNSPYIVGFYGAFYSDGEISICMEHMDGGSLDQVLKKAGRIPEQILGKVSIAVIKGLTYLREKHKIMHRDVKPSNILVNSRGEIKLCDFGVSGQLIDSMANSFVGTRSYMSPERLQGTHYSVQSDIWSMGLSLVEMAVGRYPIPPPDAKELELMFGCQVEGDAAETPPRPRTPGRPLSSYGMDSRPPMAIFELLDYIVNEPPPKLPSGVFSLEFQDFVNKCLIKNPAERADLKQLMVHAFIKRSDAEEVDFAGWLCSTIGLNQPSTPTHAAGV

Row | IC50 [1] [nM] | IC50 [2] [nM] | IC50 [3] [nM] | IC50 [4] [nM] | IC50 [5] [nM] | IC50 [6] [nM] | IC50 [7] [nM] | Structure (SMILES)
1 | 900 | 342 | 2 | – | – | – | – | COc1cc2c(Nc3ccc(Sc4nc(C)c(C)n4C)c(Cl)c3)c(C#N)cnc2cc1OCCCN1CCOCC1
2 | > 1000 | 325 | 1 | – | – | – | – | COc1cc2c(Nc3ccc(Sc4ncc(C)n4C)c(Cl)c3)c(C#N)cnc2cc1OCCCN1CCOCC1
3 | > 1000 | 10 | 4 | – | – | – | – | COc1cc2c(Nc3ccc(Sc4nccn4C)c(Cl)c3)c(C#N)cnc2cc1OCCCN1CCCC1
4 | 3200 | 36 | – | – | – | – | – | COc1cc2c(Nc3ccc(Sc4nccn4C)c(C)c3)c(C#N)cnc2cc1OCCCN1CCOCC1
5 | 5200 | 5 | 2 | – | – | – | – | COc1cc2c(Nc3ccc(Sc4nccn4C)c(Br)c3)c(C#N)cnc2cc1OCCCN1CCOCC1
6 | > 1000 | 5 | 2 | > 1000 | 8 | > 1000 | > 1000 | COc1cc2c(Nc3ccc(Sc4nccn4C)c(Cl)c3)c(C#N)cnc2cc1OCCCN1CCOCC1
7 | 2700 | 56 | 9 | – | – | – | – | COc1cc2c(Nc3ccc(Sc4nccs4)c(Cl)c3)c(C#N)cnc2cc1OCCCN1CCOCC1
8 | > 1000 | 200 | 8 | – | – | – | – | COc1cc2c(Nc3ccc(Sc4ccccn4)c(Cl)c3)c(C#N)cnc2cc1OCCCN1CCOCC1

Further lines, the compound ahead of its results:

Row | Structure (SMILES) | IC50 [1] [nM] | IC50 [2] [nM] | IC50 [3] [nM] | IC50 [4] [nM] | IC50 [5] [nM] | IC50 [6] [nM] | IC50 [7] [nM]
9 | COc1cc2c(Nc3ccc(Sc4nccn4C)cc3)c(C#N)cnc2cc1OCCCN1CCOCC1 | 4700 | 43 | – | – | – | – | –
10 | CCN1CCN(CCCOc2cc3ncc(C#N)c(Nc4ccc(Sc5nccn5C)c(Cl)c4)c3cc2OC)CC1 | > 1000 | – | – | – | – | – | –
11 | O=C(NOCC1CC1)c1ccc(F)c(F)c1Nc1ccc(I)cc1Cl [CI-1040] | > 1000 | 131 | – | – | – | – | –
12 | CCOc1cc2ncc(C#N)c(Nc3ccc(Sc4nccn4C)c(Cl)c3)c2cc1OCC | > 1000 | 7 | 10 | – | – | – | –
13 | COc1cc2c(Nc3ccc(Sc4nccn4C)c(Cl)c3)c(C#N)cnc2cc1OCCCN1CC[S+]([O-])CC1 | > 1000 | 36 | 2 | – | – | – | –
14 | COc1cc2c(Nc3ccc(Cc4nccn4C)c(Cl)c3)c(C#N)cnc2cc1OCCCN1CCOCC1 | 5500 | 380 | 212 | – | – | – | –
15 | COc1cc2c(Nc3ccc(Oc4ccccc4)cc3)c(C#N)cnc2cc1OCCCN1CCOCC1 | 5500 | 400 | 4 | > 1000 | > 1000 | > 1000 | > 1000

— ChEMBL document CHEMBL1146624, “Synthesis and evaluation of 4-anilino-6,7-dialkoxy-3-quinolinecarbonitriles as inhibitors of kinases of the Ras-MAPK signaling cascade” (Bioorg Med Chem Lett, 2003)
